As usually defined, the IC50 is the concentration needed to halve the response being measured.

Structures can show the parent of a compound that is named as a salt. Bounds are passed on as bounds.

Consider 27 molecules from US20250066369A1, “BICYCLIC PHTHALAZIN-1(2H)-ONE DERIVATIVES AND RELATED USES” (NodThera Limited, priority 2022, published 2025).

The assay deals with IL-1β release upon NLRP3 activation in peripheral blood mononuclear cells (PBMC). The assay is described as follows: PBMC IC50 determination assay: inhibition of IL-1β release upon NLRP3 activation. Format: cell-based. The settings on record: PBMC, PBMC primed with LPS 3 h, compound 30 min, stimulated with ATP (5 mM) or nigericin (10 μM) 1 h; IL-1β by ELISA (Protocol A) or HTRF (Protocol B). The protocol: PBMC IC50 determination assay. The compounds of the present disclosure were tested for their inhibitory activity against IL-1β release upon NLRP3 activation in peripheral blood mononuclear cells (PBMC).
Protocol A. PBMC were isolated from buffy coats by density gradient centrifugation on Histopaque-1077 (Sigma, cat no. 10771). Isolated cells were seeded into the wells of a 96-well plate and incubated for 3 h with lipopolysaccharide (LPS). Following medium exchange, the compounds of the present disclosure were added (a single compound per well) and the cells were incubated for 30 min. Next, the cells were stimulated either with ATP (5 mM) or nigericin (10 μM) for 1 h and the cell culture media from the wells were collected for further analysis.
The release of IL-1β into the media was determined by a quantitative detection of IL-1β in the media using an IL-1β enzyme-linked immunosorbent assay (ELISA) Ready-SET-Go!, eBioscience cat. No. 88-7261-88. Briefly, in a first step, high affinity binding plates (Corning, Costar 9018 or NUNC Maxisorp Cat No. 44-2404) were coated overnight at 4° C. with specific capture antibody included in the kit (anti-human IL-1β ref. 14-7018-68). Subsequently, plates were blocked with blocking buffer for 1 h at room temperature (rt) and after washing with a buffer (PBS with 0.05% Tween-20) incubated with protein standard and culture media. After 2 h of incubation at rt, plates were washed and incubated with biotinylated detection antibody included in the kit (anti-human IL-1β Biotin ref 33-7110-68) for 1 h at rt. Plates were washed and incubated with HRP-streptavidin for 30 min at rt and washed again. The signal was developed after addition of 3,3′,5,5′-tetramethylbenzidine-peroxidase (TMB) until colour appeared and the reaction was stopped by 2 M H2SO4. A microplate spectrophotometer (BioTek) was used to detect signals with 450 nm. The detection range of IL-1β ELISA was […].
Protocol B. PBMC were isolated from buffy coats by density gradient centrifugation on Histopaque-1077 (Sigma, cat no. 10771). Isolated cells were seeded into the wells (280,000 cells/well) of a 96-well plate and incubated for 3 h with lipopolysaccharide (LPS, 1 μg/mL diluted 1000× from a 1 mg/mL stock solution). The compounds of the present disclosure were added (a single compound per well) and the cells were incubated for 30 min. Next, the cells were stimulated with ATP (5 mM final concentration diluted 20× from a 100 mM stock solution) for 1 h and the cell culture media from the wells were collected for further analysis.
The release of IL-1β into the media was determined by quantitative detection of IL-1β in the media using HTRF®, CisBio cat. No. 62HIL1BPEH. Briefly, cell culture supernatant were dispensed directly into the assay plate containing antibodies labelled with the HTRF® donor and acceptor. A microplate spectrophotometer (BMG) was used to detect signals at 655 nm and 620 nm. The detection range of IL-1β HTRF® was 39-6500 μg/mL.
A general note: In an ELISA, binding on a coated surface is turned into a signal by an enzyme label.
`CC(C)c1nn(CC(=O)N[C@@H]2CCCN(C3CC3)C2)c(=O)c2cnn(C)c12` [Compound 2, N-[(3R)-1-Cyclopropyl-3-piperidyl]-2-(7-isopropyl-1-methyl-4-oxo-pyrazolo[3,4-d]pyridazin-5-yl)acetamide] showed an IC50 of 1000 to 3000 nM.
The figure for `CC(C)c1nn(CC(=O)Nc2ncccn2)c(=O)c2sc(NCC(F)(F)F)cc12` [Compound 100, 2-[7-Oxo-4-(propan-2-yl)-2-[(2,2,2-trifluoroethyl)amino]-6H,7H-thieno[2,3-d]pyridazin-6-yl]-N-(pyrimidin-2-yl)acetamide] is 1000 to 3000 nM.
To `CC(C)c1nn(CC(=O)Nc2ncccn2)c(=O)c2cn(C3CCC3)nc12` [Compound 71, 2-(2-Cyclobutyl-7-isopropyl-4-oxo-2,4-dihydro-5H-pyrazolo[3,4-d]pyridazin-5-yl)-N-(pyrimidin-2-yl)acetamide] belongs 1000 to 3000 nM; to `CCCc1cc2c(C(C)C)nn(CC(=O)Nc3ncccn3)c(=O)c2s1` [Compound 99, 2-[7-Oxo-4-(propan-2-yl)-2-propyl-6H,7H-thieno[2,3-d]pyridazin-6-yl]-N-(pyrimidin-2-yl)acetamide], 100 to 1000 nM.
As to `COCc1cc2c(C(C)C)nn(CC(=O)N[C@@H]3CCCN(C4CCC4)C3)c(=O)c2s1` [Compound 31, N-[(3R)-1-Cyclobutyl-3-piperidyl]-2-[4-isopropyl-2-(methoxymethyl)-7-oxo-thieno [2,3-d]pyridazin-6-yl]acetamide hydrochloride], the IC50 was 1000 to 3000 nM.
The figure for `CNc1cc2c(C(C)C)nn(C3(C(=O)Nc4ncccn4)CC3)c(=O)c2s1` [Compound 113, 1-[2-(Methylamino)-7-oxo-4-(propan-2-yl)-6H,7H-thieno[2,3-d]pyridazin-6-yl]-N-(pyrimidin-2-yl)cyclopropane-1-carboxamide] is 10000 to 50000 nM; for `CC(C)c1nn(CC(=O)Nc2ncccn2)c(=O)c2sc(Br)cc12` [Compound 64, 2-(2-Bromo-4-isopropyl-7-oxothieno[2,3-d]pyridazin-6(7H)-yl)-N-(pyrimidin-2-yl)acetamide] it is 100 to 1000 nM; for `CCc1cc2c(=O)n(CC(=O)Nc3ncc(F)cn3)nc(CC)c2o1` [Compound 55, 2-(2,7-Diethyl-4-oxofuro[2,3-d]pyridazin-5(4H)-yl)-N-(5-fluoropyrimidin-2-yl)acetamide] it is 100 to 1000 nM.
The figure for `Cc1nn(CC(=O)N[C@@H]2CCCN(C3CCC3)C2)c(=O)c2ccc(C3CC3)nc12` [Compound 47] is 100 to 1000 nM.
To `CCN(C)c1cc2c(C(C)C)nn(CC(=O)Nc3ncccn3)c(=O)c2s1` [Compound 97, 2-{2-[Ethyl(methyl)amino]-7-oxo-4-(propan-2-yl)-6H,7H-thieno[2,3-d]pyridazin-6-yl}-N-(pyrimidin-2-yl)acetamide] belongs 3000 to 10000 nM.
Take `CC(C)c1nn(CC(=O)Nc2ncco2)c(=O)c2cn(C3CC3)nc12` [Compound 73, 2-(2-Cyclopropyl-7-isopropyl-4-oxo-2,4-dihydro-5H-pyrazolo[3,4-d]pyridazin-5-yl)-N-(oxazol-2-yl)acetamide]: the half-inhibitory concentration (IC50) lay in the range of 100 to 1000 nM.
To `CC(C)c1nn(CC(=O)N[C@@H]2CCCN(C3CC3)C2)c(=O)c2sc(Cl)cc12` [Compound 11, 2-(2-Chloro-4-isopropyl-7-oxo-thieno[2,3-d]pyridazin-6-yl)-N-[(3R)-1-cyclopropyl-3-piperidyl]acetamide] belongs 1000 to 3000 nM.
To `Cc1nn(CC(=O)Nc2ncccn2)c(=O)c2cc(C3CC3)oc12` [Compound 82, 2-{2-Cyclopropyl-7-methyl-4-oxo-4H,5H-furo[2,3-d]pyridazin-5-yl}-N-(pyrimidin-2-yl)acetamide] belongs 100 to 1000 nM; to `CNc1cc2c(C)nn(CC(=O)Nc3ncco3)c(=O)c2s1` [Compound 119, 2-[4-Methyl-2-(methylamino)-7-oxo-6H,7H-thieno[2,3-d]pyridazin-6-yl]-N-(1,3-oxazol-2-yl)acetamide], 1000 to 3000 nM.
The figure for `CC(C)c1nn(CC(=O)Nc2ncccn2)c(=O)c2sc(C3CC3)cc12` [Compound 75, 2-(2-Cyclopropyl-4-isopropyl-7-oxothieno[2,3-d]pyridazin-6(7H)-yl)-N-(pyrimidin-2-yl)acetamide] is 100 to 1000 nM; for `CNc1cc2c(=O)n(CC(=O)Nc3ncccn3)nc(C(C)C)c2o1` [Compound 111, 2-[2-(Methylamino)-4-oxo-7-(propan-2-yl)-4H,5H-furo[2,3-d]pyridazin-5-yl]-N-(pyrimidin-2-yl)acetamide] it is 100 to 1000 nM; for `CNc1cc2c(C(C)C)nn(CC(=O)Nc3ncccn3)c(=O)c2s1` [Compound 94, 2-[2-(Methylamino)-7-oxo-4-(propan-2-yl)-6H,7H-thieno[2,3-d]pyridazin-6-yl]-N-(pyrimidin-2-yl)acetamide] it is ≤ 100 nM.
Molecule `CCn1cc2c(=O)n(CC(=O)N[C@@H]3CCCN(C)C3)nc(C(C)C)c2n1` [Compound 6, 2-(2-Ethyl-7-isopropyl-4-oxo-pyrazolo[3,4-d]pyridazin-5-yl)-N-[(3R)-1-methyl-3-piperidyl]acetamide] returned a 50% inhibitory concentration (IC50) of 10000 to 50000 nM.
To `CC(C)c1nn(CC(=O)Nc2ncccn2)c(=O)c2sc(N)cc12` [Compound 101, 2-[2-Amino-7-oxo-4-(propan-2-yl)-6H,7H-thieno[2,3-d]pyridazin-6-yl]-N-(pyrimidin-2-yl)acetamide] belongs 1000 to 3000 nM; to `CCc1nn(CC(=O)Nc2ncccn2)c(=O)c2sc(C)cc12` [Compound 116], 1000 to 3000 nM; to `CC(C)c1nn(CC(=O)Nc2ncccn2)c(=O)c2ccc(C3CC3)nc12` [Compound 27, 2-(2-Cyclopropyl-8-isopropyl-5-oxo-pyrido [2,3-d]pyridazin-6-yl)-N-pyrimidin-2-yl-acetamide], 100 to 1000 nM.
The molecule `CCOC(=O)c1cnc(NC(=O)Cn2nc(C)c3cc(C4CC4)sc3c2=O)nc1` [Compound 86, Ethyl 2-(2-{2-cyclopropyl-4-methyl-7-oxo-6H,7H-thieno[2,3-d]pyridazin-6-yl}acetamido)pyrimidine-5-carboxylate] yielded a half-inhibitory concentration (IC50) of 100 to 1000 nM.
The figure for `CCc1nn(CC(=O)Nc2ncccn2)c(=O)c2cc(C3CC3)oc12` [Compound 89, 2-{2-cyclopropyl-7-ethyl-4-oxo-4H,5H-furo[2,3-d]pyridazin-5-yl}-N-(pyrimidin-2-yl)acetamide] is 100 to 1000 nM.
The figure for `CC(C)c1nn(CC(=O)Nc2ccc3nncn3c2)c(=O)c2cc(C3CC3)oc12` [Compound 104, 2-[2-Cyclopropyl-4-oxo-7-(propan-2-yl)-4H,5H-furo[2,3-d]pyridazin-5-yl]-N-{[1,2,4]triazolo[4,3-a]pyridin-6-yl}acetamide] is 100 to 1000 nM.
To `CCc1ccc2c(=O)n(CC(=O)Nc3ncccn3)nc(C(C)C)c2n1` [Compound 42] belongs 100 to 1000 nM; to `CCc1nn(CC(=O)Nc2ncc(F)cn2)c(=O)c2cn(CC)nc12` [Compound 20, 2-(2,7-Diethyl-4-oxo-pyrazolo[3,4-d]pyridazin-5-yl)-N-(5-fluoropyrimidin-2-yl)acetamide], 10000 to 50000 nM; to `CCNc1cc2c(C)nn(CC(=O)Nc3ncccn3)c(=O)c2s1` [Compound 98, 2-[2-(Ethylamino)-4-methyl-7-oxo-6H,7H-thieno[2,3-d]pyridazin-6-yl]-N-(pyrimidin-2-yl)acetamide], 1000 to 3000 nM.
